Experimental data as given in patent publication US20200352163A1, “ANTIMICROBIAL MIXTURE CONTAINING 4-(3-ETHOXY-4-HYDROXYPHENYL)BUTAN-2-ONE AND AN AROMATIC ALCOHOL, AND COSMETIC COMPOSITION CONTAINING SAME” (L'OREAL, priority 2017, published 2020).

Experiments:
Assay in all cases: MIC / FIC synergy test in 96-well microplate, optical density at 620 nm
Assay type in all cases: cell-based
Conditions in all cases: for microbial growth percentage: weight %
[1] = test system: Aspergillus niger ATCC 6275
Description: (§1) FIC Index=(MIC of A with B/MIC of A)+(MIC of B with A/MIC of B)
(§2) with: • MIC of A with B: minimum concentration of product A in the combination A+B which makes it possible to obtain an inhibitory effect; • MIC of B with A: minimum concentration of product B in the combination A+B which makes it possible to obtain an inhibitory effect; • MIC of A: minimum inhibitory concentration of product A alone; • MIC of B: minimum inhibitory concentration of product B alone.
(§3) As regards the combinations tested, MIC of A with B and MIC of B with A are the respective concentrations of A and of B in the combinations which make it possible to obtain a microbial growth percentage of less than or equal to 20%.
(§4) When the FIC index value is less than or equal to 1, it is considered that the combination of test compounds has a synergistic effect.
The microbial strain Aspergillus niger ATCC 6275, and a double-concentration Sabouraud broth liquid culture medium supplemented with polyoxyethylenated (20 OE) sorbitan monopalmitate (Tween 40 from Croda) and Phytagel© BioReagent were used (i.e. a mixture of 5 g of Phytagel+0.6 g Tween 40+60 g of Sabouraud broth).
(§5) A 96-well microplate and an incubation temprature of 32.5° C. are used.
(§6) The incubation time of the microplate is: • from 18 to 24 h under aerobic conditions for Candida albicans ATCC 10231, Pseudomonas aeruginosa ATCC 9027 and Staphylococcus aureus ATCC 6538; • from 24 to 30 h under aerobic conditions for microbial Aspergillus niger ATCC 6275; • from 24 to 48 h under aerobic conditions for Enterococcus faecalis ATCC 33186.
(§7) A 10% (weight/volume) stock solution was prepared by mixing 1 g of compound in 9 ml of aqueous 1‰ agar solution. Successive dilutions were made with the 1‰ agar solution.
(§8) 50 μl of each of the daughter solutions obtained containing compound A or B are added to the microplate wells. 100 μl of Sabouraud liquid nutrient broth inoculated at double concentration with the Aspergillus niger strain and 50 μl of aqueous 1‰ agar solution are also added thereto.
(§9) 50 μl of each of the daughter solutions obtained containing compound A and 50 μl of each of the daughter solutions obtained containing compound B are added to the microplate wells. 100 μl of Sabouraud liquid nutrient broth inoculated at double concentration with the strain Aspergillus niger are also added thereto.
(§10) A positive microbial growth control was also prepared. The positive microbial growth control corresponds to a mixture of 100 μl of aqueous 1‰ agar solution with 100 μl of Sabouraud liquid nutrient broth inoculated at double concentration with the strain Aspergillus niger in the absence of compounds A and B.
(§11) An absorbance control was performed in parallel on compounds A and B alone. This control corresponds to 100 μl of double concentration sterile Sabouraud liquid nutrient broth+100 μl of double concentration compound A or B.
(§12) In the three cases (absorbance control, growth control and test), the final volume present in each of the microplate wells is 200 μl.
In the two cases (test and control), the inoculum represents the concentration of the Aspergillus niger strain present in the final volume of the wells (200 μl) and is between 2 and 6×10^5 cfu/ml of Aspergillus niger.

[2] = test system: Staphylococcus aureus ATCC 6538
Description: as §1, §2, §3, §4
The microbial strain Staphylococcus aureus ATCC 6538 and a double-concentration nutrient broth liquid culture medium were used.
as §5, §6, §7, §8, §9, §10, §11, §12
(§13) The test as described above (tests, absorbance control and growth control) was performed again to test the combination A+B on the following strains Enterococcus faecalis, Staphylococcus aureus, Pseudomonas aeruginosa, Candida albicans.

[3] = test system: Enterococcus faecalis ATCC 33186
Description: as §1, §2, §3, §4
The microbial strain Enterococcus faecalis ATCC 33186 and a double-concentration BHI (Brain Heart Infusion) broth liquid culture medium were used.
as §5, §6, §7, §8, §9, §10, §11, §12, §13

[4] = test system: Candida albicans ATCC 10231
Description: as §1, §2, §3, §4
The microbial strain Candida albicans ATCC 10231 and a double-concentration Sabouraud broth liquid culture medium were used.
as §5, §6, §7, §8, §9, §10, §11, §12, §13

[5] = test system: Pseudomonas aeruginosa ATCC 9027
Description: as §1, §2, §3, §4
The microbial strain Pseudomonas aeruginosa ATCC 9027 and a double-concentration nutrient broth liquid culture medium were used.
as §5, §6, §7, §8, §9, §10, §11, §12, §13

[6] = Example 1, first concentration giving growth <= 20%
[7] = Example 5, first concentration giving growth <= 20%
[8] = first concentration giving growth <= 20%

**Q.** Which results are given for `CCOc1cc(CCC(C)=O)ccc1O` [A, 4-(3-ethoxy-4-hydroxyphenyl)butan-2-one]?
**A.** microbial growth percentage ([1]; 0.0625 A alone, Example 1): 85%; microbial growth percentage ([1]; 0.0625 A alone, Example 5): 86%; microbial growth percentage ([1]; 0.125 A alone, Example 1): 47%; microbial growth percentage ([1]; 0.125 A alone, Example 5): 41%; microbial growth percentage ([1]; 0.25 A alone, Example 1): 7%; microbial growth percentage ([1]; 0.25 A alone, Example 5): 6%; % MIC of A alone [1, 6]: 0.25%; % MIC of A alone [1, 7]: 0.25%; microbial growth percentage ([2]; 0.0625 A alone): 71%; microbial growth percentage ([2]; 0.125 A alone): 57%; microbial growth percentage ([2]; 0.25 A alone): 52%; microbial growth percentage ([2]; 0.5 A alone): 1%; % MIC of A alone [2, 8]: 0.5%; microbial growth percentage ([3]; 0.0625 A alone, Example 1): 82%; microbial growth percentage ([3]; 0.0625 A alone, Example 5): 78%; microbial growth percentage ([3]; 0.0625 A alone, Example 6): 42%; microbial growth percentage ([3]; 0.125 A alone, Example 1): 89%; microbial growth percentage ([3]; 0.125 A alone, Example 5): 86%; microbial growth percentage ([3]; 0.125 A alone, Example 6): 42%; microbial growth percentage ([3]; 0.25 A alone, Example 1): 89%; microbial growth percentage ([3]; 0.25 A alone, Example 5): 92%; microbial growth percentage ([3]; 0.25 A alone, Example 6): 33%; microbial growth percentage ([3]; 0.5 A alone, Example 1): 75%; microbial growth percentage ([3]; 0.5 A alone, Example 5): 72%; microbial growth percentage ([3]; 0.5 A alone, Example 6): 34%; microbial growth percentage ([3]; 1 A alone, Example 1): 13%; microbial growth percentage ([3]; 1 A alone, Example 5): 4%; microbial growth percentage ([3]; 1 A alone, Example 6): 24%; % MIC of A alone [3, 6]: 1%; % MIC of A alone [3, 7]: 1%; % MIC of A alone ([3]; Example 6): 1%; microbial growth percentage ([4]; 0.025 A alone, Example 1): 48%; microbial growth percentage ([4]; 0.025 A alone, Example 3): 85%; microbial growth percentage ([4]; 0.025 A alone, Example 6): 69%; microbial growth percentage ([4]; 0.05 A alone, Example 1): 29%; microbial growth percentage ([4]; 0.05 A alone, Example 3): 64%; microbial growth percentage ([4]; 0.05 A alone, Example 6): 63%; microbial growth percentage ([4]; 0.1 A alone, Example 1): 16%; microbial growth percentage ([4]; 0.1 A alone, Example 3): 25%; microbial growth percentage ([4]; 0.1 A alone, Example 6): 38%; microbial growth percentage ([4]; 0.2 A alone, Example 3): 3%; microbial growth percentage ([4]; 0.2 A alone, Example 6): 4%; % MIC A ([4]; A alone, Example 3, first concentration giving growth <= 20%): 0.2%; % MIC of A alone [4, 6]: 0.1%; % MIC of A alone ([4]; Example 6, first concentration giving growth <= 20%): 0.2%; microbial growth percentage ([5]; 0.0625 A alone): 49%; microbial growth percentage ([5]; 0.125 A alone): 82%; microbial growth percentage ([5]; 0.25 A alone): 116%; microbial growth percentage ([5]; 0.5 A alone): 67%; microbial growth percentage ([5]; 1 A alone): −4%; % MIC of A alone [5, 8]: 1%

**Q.** `OCCOc1ccccc1` [B1, 2-phenoxyethanol] was tested. Which microbial growth percentage ([1]; 0.0625 B1 alone) did it give?
**A.** 95%

**Q.** What about the microbial growth percentage ([1]; 0.125 B1 alone) of the same compound?
**A.** 89%

**Q.** And the microbial growth percentage ([1]; 0.25 B1 alone)?
**A.** 8%

**Q.** And the “% MIC of B1 alone” value [1, 8]?
**A.** 0.25%

**Q.** What about the microbial growth percentage ([2]; 0.0625 B1 alone) of the same compound?
**A.** 66%

**Q.** And the microbial growth percentage ([2]; 0.125 B1 alone)?
**A.** 73%

**Q.** What about the microbial growth percentage ([2]; 0.25 B1 alone) of the same compound?
**A.** 58%

**Q.** What about the microbial growth percentage ([2]; 0.5 B1 alone) of the same compound?
**A.** 1%

**Q.** And the “% MIC of B1 alone” value [2, 8]?
**A.** 0.5%

**Q.** And the microbial growth percentage ([3]; 0.0625 B1 alone)?
**A.** 87%

**Q.** What about the microbial growth percentage ([3]; 0.125 B1 alone) of the same compound?
**A.** 86%

**Q.** What about the microbial growth percentage ([3]; 0.25 B1 alone) of the same compound?
**A.** 84%

**Q.** What about the microbial growth percentage ([3]; 0.5 B1 alone) of the same compound?
**A.** 80%

**Q.** And the microbial growth percentage ([3]; 1 B1 alone)?
**A.** 6%

**Q.** And the “% MIC of B1 alone” value [3, 8]?
**A.** 1%

**Q.** What about the microbial growth percentage ([4]; 0.0625 B1 alone) of the same compound?
**A.** 44%

**Q.** And the microbial growth percentage ([4]; 0.125 B1 alone)?
**A.** 22%

**Q.** What about the microbial growth percentage ([4]; 0.25 B1 alone) of the same compound?
**A.** 2%

**Q.** What about the “% MIC of B1 alone” value [4, 8] of the same compound?
**A.** 0.25%

**Q.** What about the microbial growth percentage ([5]; 0.0625 B1 alone) of the same compound?
**A.** 45%

**Q.** What about the microbial growth percentage ([5]; 0.125 B1 alone) of the same compound?
**A.** 39%

**Q.** And the microbial growth percentage ([5]; 0.25 B1 alone)?
**A.** 39%

**Q.** What about the microbial growth percentage ([5]; 0.5 B1 alone) of the same compound?
**A.** 0%

**Q.** And the microbial growth percentage ([5]; 1 B1 alone)?
**A.** 0%

**Q.** What about the “% MIC of B1 alone” value [5, 8] of the same compound?
**A.** 0.5%

**Q.** With `OCCc1ccccc1` [B2, phenylethyl alcohol] as the compound, how does the microbial growth percentage ([4]; 0.125 B2 alone) read?
**A.** 41%

**Q.** What about the microbial growth percentage ([4]; 0.25 B2 alone) of the same compound?
**A.** 7%

**Q.** What about the “MIC B2” value ([4]; B2 alone, first concentration giving growth <= 20%) of the same compound?
**A.** 0.25%

**Q.** What does the source list for `OCc1ccccc1` [B3, benzyl alcohol]?
**A.** microbial growth percentage ([1]; 0.0125 B3 alone): 94%; microbial growth percentage ([1]; 0.25 B3 alone): 31%; microbial growth percentage ([1]; 0.5 B3 alone): 1%; % MIC of B3 alone [1, 8]: 0.5%; microbial growth percentage ([3]; 0.25 B3 alone): 77%; microbial growth percentage ([3]; 0.5 B3 alone): 30%; microbial growth percentage ([3]; 1 B3 alone): 3%; % MIC of B3 alone [3, 8]: 1%

**Q.** Which “% MIC of B4 alone” value [3] does the source give for `Cc1cc(O)ccc1C(C)C` [B4, 4-isopropyl-3-methylphenol] here?
**A.** 0.1%

**Q.** What about the microbial growth percentage ([3]; 0.0125 B4 alone) of the same compound?
**A.** 45%

**Q.** What about the microbial growth percentage ([3]; 0.025 B4 alone) of the same compound?
**A.** 44%

**Q.** What about the microbial growth percentage ([3]; 0.05 B4 alone) of the same compound?
**A.** 27%

**Q.** What about the microbial growth percentage ([3]; 0.1 B4 alone) of the same compound?
**A.** 23%

**Q.** And the microbial growth percentage ([4]; 0.0025 B4 alone)?
**A.** 87%

**Q.** And the microbial growth percentage ([4]; 0.005 B4 alone)?
**A.** 82%

**Q.** And the microbial growth percentage ([4]; 0.01 B4 alone)?
**A.** 73%

**Q.** What about the microbial growth percentage ([4]; 0.02 B4 alone) of the same compound?
**A.** 35%

**Q.** And the microbial growth percentage ([4]; 0.04 B4 alone)?
**A.** 1%

**Q.** What about the “% MIC of B4 alone” value [4, 8] of the same compound?
**A.** 0.04%
